From patent US20260000670A1 (priority 2022, published 2026)

Experiments:
[1] = Lindauer M et al, 2010; cited from earlier work
[2] = tested on: mice; assay: anti-AAV8 IgM and IgG titers, 1-week vs 2-week dasatinib treatment in mice; type: in vivo
Method: (§1) FIG. 7: In vivo study to assess the impact of prolonging the dasatinib treatment. All mouse groups, except Group 1, were immunized on day 1 with an i.v. injection of AAV8-hSeap (1e12 vg/kg). Four groups received an i.v. injection of AAV8-FactorIX (3e13 vg/kg) on day 43. Concomitantly to the first AAV administration, Groups 3 and 4 were treated with dasatinib for either 1 or 2 weeks, respectively. Dasatinib was administered at the dose of 50 mg/kg per oral gavage, twice per day and starting 1 hr before the first AAV treatment.
(§2) FIGS. 8A-8B: Prolongation of dasatinib treatment from 1 week to 2 weeks improves the inhibition of IgM formation to AAV8. In the experiment described in FIG. 8A and FIG. 8B anti-AAV8 IgM titers (median+/−SD) were measured in each mouse group from day 0 (before AAV8-hSeap administration) to day 64, as described for FIGS. 2A-2C. Each circle represents an individual IgM titer.
as §2, with “9A-9B:” for “8A-8B:”, “IgG” for “IgM”, “9A” for “8A”, “9B,” for “8B”, “3A-3C.” for “2A-2C.”
In the experiment described in Example 1, despite the strong inhibition of anti-AAV antibody formation observed in most of the mice, 4 out of 10 dasatinib-treated animals started to develop anti-AAV8 IgG before re-dosing (FIG. 3C, days 15-21). The presence of residual AAV8 particles in the circulation and in the tissues after the cessation of the dasatinib treatment might lead to this antibody formation. […] To this purpose, the same protocol was applied as in Example 1, but using either a 1-week or a 2-week dasatinib treatment. In addition, re-dosing was performed at a later time point (day 43 instead of day 22) to be able to observe potential antibody formation after the cessation of dasatinib treatment. This protocol is depicted in FIG. 7.
Circulating IgM and IgG directed against the AAV8 capsid were titrated in the serum samples (FIGS. 8A-8B and 9A-9B). The peaks of anti-AAV8 IgM were observed one week after first rAAV8 dosing, on day 8 for the immunized control Group 2 and on day 50 for the non-immunized control Group 1 (10/10 mice above the threshold) (FIGS. 8A-8B). […] Inhibition of IgM production was stronger in Group 4, treated with dasatinib for 2 weeks.

[3] = tested on: mice; assay: hFIX transgene expression after re-dosing, 1-week vs 2-week dasatinib treatment; type: in vivo
Method: as §1
FIG. 10: Prolongation of dasatinib treatment upon first AAV8 dosing improves transgene expression after readministration. In the experiment described in FIG. 10, the levels of hFIX expression (ng/mL, median+/−SD) were measured for each group, starting on day 42 (one day before administration of AAV8-hFIX) and up to day 64.
In the experiment described in Example 1, despite the strong inhibition of anti-AAV antibody formation observed in most of the mice, 4 out of 10 dasatinib-treated animals started to develop anti-AAV8 IgG before re-dosing (FIG. 3C, days 15-21). […]
The inhibition of antibody formation to AAV8 correlated with the improvement of hFIX transgene expression after re-dosing, showing efficient transduction by the second AAV8(FIG. 10). Expression of hFIX was inversely correlated with the IgG and IgM titers measured on day 42 before re-dosing.

[4] = tested on: murine splenocytes; assay: AAV8-dependent cytokine and chemokine release by murine splenocytes; type: cell-based, C57BL/6 mouse; conditions: dasatinib 100 nM, 50 nM or 12.5 nM; 24 hrs, AAV8-hSeap MOI 1E5
Method: Splenocytes were isolated from a C57/B16 mouse and incubated for 24 hrs with AAV8-hSeap at MOI 1E5 in the presence or absence of dasatinib (100 nM, 50 nM or 12.5 nM). Cytokines and chemokines were measured in the culture supernatants. LPS (positive) and PBS (negative) controls are shown on the graphs. Means+/−SD (triplicates). Dashed line: Lower limit of quantification.
To investigate the mechanism of dasatinib-mediated inhibition of the humoral response to AAV8 observed in mice (Examples 1 and 5), we looked whether the rapid production of cytokines and chemokines by immune cells was affected by the dasatinib treatment. Total splenocytes from a C57BL/6 mouse were cultured for 24 hrs in the presence or absence of dasatinib at different concentrations. Cytokines and chemokines secreted in the culture supernatants were analyzed using ProcartaPlex Immunoassays (Luminex).

[5] = Group 4, dasatinib for 2 weeks, day 42

**Q.** With Cc1nc(Nc2ncc(C(=O)Nc3c(C)cccc3Cl)s2)cc(N2CCN(CCO)CC2)n1 [dasatinib, N-(2-chloro-6-methylphenyl)-2-[[6-[4-(2-hydroxyethyl)-1-piperazinyl]-2-methyl-4-pyrimidinyl]amino]-5-thiazole carboxamide monohydrate] as the compound, how does the half-life [1] read?
**A.** very short

**Q.** And the “anti-AAV8 IgM titers until administration of the second rAAV8” value ([2]; Group 3, dasatinib 50 mg/kg oral twice per day for 1 week)?
**A.** remained low to negative

**Q.** And the “mice with negative anti-AAV8 IgG titers” value ([2]; Group 3, dasatinib for 1 week, day 42)?
**A.** 3/15

**Q.** What about the “mice with positive IgM titers to AAV8” value ([2]; Group 3, dasatinib for 1 week, day 42 before AAV8 re-dosing) of the same compound?
**A.** Four out of 15

**Q.** What about the “inhibition of IgM production compared with 1-week treatment” value ([2]; Group 4, dasatinib for 2 weeks) of the same compound?
**A.** stronger

**Q.** And the “mice with IgG titers below the positivity threshold” value [2, 5]?
**A.** 5/15

**Q.** What about the “mice with positive IgM titer” value [2, 5] of the same compound?
**A.** one

**Q.** And the “median anti-AAV8 IgG titer” value ([2]; Group 4, dasatinib for 2 weeks, day 42, compared with 1-week Group 3)?
**A.** much lower than in Group 3

**Q.** And the “anti-AAV8 IgG titers after rAAV8 re-administration” value ([2]; day 64, 3 weeks after rAAV8 re-administration)?
**A.** comparable in all mouse groups

**Q.** And the “expression of hFIX, 2-week treatment compared with 1-week treatment” value ([3]; Group 4 (2 weeks) vs Group 3 (1 week), after AAV8-FactorIX 3e13 vg/kg on day 43)?
**A.** higher

**Q.** What about the “hFIX levels in mice that remained IgG-negative on day 42” value ([3]; day 64, dasatinib-treated mice) of the same compound?
**A.** in the range of those measured in the non-immunized control Group 1

**Q.** And the “IL-6 in culture supernatant” value [4]?
**A.** dose-dependent decreases

**Q.** What about the “IP-10/CXCL10 in culture supernatant” value [4] of the same compound?
**A.** dose-dependent decreases

**Q.** And the “MCP-1 in culture supernatant” value [4]?
**A.** dose-dependent decreases

**Q.** And the “MCP-3 in culture supernatant” value [4]?
**A.** dose-dependent decreases

**Q.** And the “MIP-1α in culture supernatant” value [4]?
**A.** dose-dependent decreases

**Q.** What about the “MIP-1β in culture supernatant” value [4] of the same compound?
**A.** dose-dependent decreases

**Q.** And the “MIP-2α in culture supernatant” value [4]?
**A.** dose-dependent decreases

**Q.** What about the “TNF-α in culture supernatant” value [4] of the same compound?
**A.** dose-dependent decreases
